Counter-ions that a name gives are not always drawn. Like-named read-outs stand apart in the source and are kept apart here.
Tested on: mice
Test: Neuropharmacological Assay (SmartCube): automated behavioral signature of compound-treated mice compared with a database of reference drug classes
Type: in vivo
Conditions: for minimal effective dose: Mus musculus, ip; for minimal effective dose / MED (minimal effective dose) / MED: i.p., that dose is shown; for AG / AN / AX / CE / HL / SH / AD / AP / MS / PS / UK: 3.0 mg/kg i.p., 15 min before test
Method in brief: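 i.p. dosing 15 min pre-test (NMP/PEG/propylene glycol vehicle); 3 doses, 3.0 mg/kg reported. Output = class-match probability per behavioural effect. Potency runs 0.3, 1, 3, 10 mpk (range adjusted as needed); MED = dose with ≥45% total activity.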

[1] = dose having 45% or more total activity in SmartCube, if only one dose was tested, read-out: MED (minimal effective dose)
[2] = probability that activity matches this class of agents
[3] = probability that activity matches this class of agents, hydrochloride, 3 mg/kg
[4] = dose having 45% or more total activity in SmartCube, if only one dose was tested
[5] = dose having 45% or more total activity in SmartCube, if only one dose was tested, hydrochloride
[6] = minimal effective dose: dose having 45% or more total activity in SmartCube, if only one dose tested, read-out: MED
[7] = SmartCube class probability, hydrochloride, 3 mg/kg
[8] = minimal effective dose: dose having 45% or more total activity in SmartCube, if only one dose tested

In the case of `CNC1CCc2scc(Cl)c2C1` (single isomer, unassigned) [Compound 131, 3-chloro-N-methyl-4,5,6,7-tetrahydrobenzothiophen-5-amine hydrochloride], the minimal effective dose [1] is reported as 3 mg/kg, the AG [2] is reported as “ND (^ <4%)” and the AN [2] is reported as “ND (^ <4%)”. For the same molecule, the AX [2] was “ND (^ <4%)”, the CE [2] was “ND (^ <4%)” and the HL [2] was “ND (^ <4%)”. The SH [2] was “ND (^ <4%)”, the AD [3] was “+ (≥4%)” and the AP [3] was “++ (≥24%)”. For the same molecule, the MS [3] was “+ (≥4%)”, the PS [3] was “ND (^ <4%)” and the UK [3] was “ND (^ <4%)”.
`CNC1CCc2scc(Cl)c2C1` (single isomer, unassigned) [Compound 132, 3-chloro-N-methyl-4,5,6,7-tetrahydrobenzothiophen-5-amine hydrochloride] was tested, and the “MED (minimal effective dose)” value [4] was 3 mpk, the AG [2] was “ND (^ <4%)” and the AN [2] was “ND (^ <4%)”. For the same molecule, the AX [2] was “ND (^ <4%)”, the CE [2] was “ND (^ <4%)” and the HL [2] was “ND (^ <4%)”. For the same molecule, the SH [2] was “ND (^ <4%)”, the AD [3] was “ND (^ <4%)” and the AP [3] was “+ (≥4%)”. The MS [3] was “ND (^ <4%)”, the PS [3] was “+ (≥4%)” and the UK [3] was “++ (≥24%)”.
With `CNC1CCc2csc(C#N)c2C1` (single isomer, unassigned) [Compound 133, 6-(methylamino)-4,5,6,7-tetrahydro-2-benzothiophene-1-carbonitrile hydrochloride] the “MED (minimal effective dose)” value [5] was less than 1 mpk, the AG [2] was “ND (^ <4%)” and the AN [2] was “ND (^ <4%)”. For the same molecule, the AX [2] was “ND (^ <4%)”, the CE [2] was “ND (^ <4%)” and the HL [2] was “ND (^ <4%)”. The MS [2] was “ND (^ <4%)”, the PS [2] was “ND (^ <4%)” and the SH [2] was “ND (^ <4%)”. The AD [3] was “+++ (≥49%)”, the AP [3] was “+ (≥4%)” and the UK [3] was “ND (^ <4%)”.
In the case of `CNC1CCc2csc(C#N)c2C1` (single isomer, unassigned) [Compound 134, 6-(methylamino)-4,5,6,7-tetrahydro-2-benzothiophene-1-carbonitrile hydrochloride], the “MED (minimal effective dose)” value [5] is reported as 3 mpk, the AG [2] is reported as “ND (^ <4%)” and the AN [2] is reported as “ND (^ <4%)”. For the same molecule, the AX [2] was “ND (^ <4%)”, the CE [2] was “ND (^ <4%)” and the HL [2] was “ND (^ <4%)”. For the same molecule, the MS [2] was “ND (^ <4%)”, the PS [2] was “ND (^ <4%)” and the SH [2] was “ND (^ <4%)”. For the same molecule, the AD [3] was “ND (^ <4%)”, the AP [3] was “ND (^ <4%)” and the UK [3] was “+++ (≥49%)”.
In the case of `NC1COc2ccsc2C1` (single isomer, unassigned) [Compound 135, 6,7-dihydro-5H-thieno[3,2-b]pyran-6-amine hydrochloride], the minimal effective dose [1] is reported as 3 mg/kg, the AD [2] is reported as “ND (^ <4%)” and the AG [2] is reported as “ND (^ <4%)”. For the same molecule, the AN [2] was “ND (^ <4%)”, the AX [2] was “ND (^ <4%)” and the CE [2] was “ND (^ <4%)”. For the same molecule, the HL [2] was “ND (^ <4%)”, the MS [2] was “ND (^ <4%)” and the PS [2] was “ND (^ <4%)”. For the same molecule, the AP [3] was “+ (≥4%)”, the SH [3] was “++ (≥24%)” and the UK [3] was “ND (^ <4%)”.
In the case of `NC1COc2ccsc2C1` (single isomer, unassigned) [Compound 136, 6,7-dihydro-5H-thieno[3,2-b]pyran-6-amine hydrochloride], the “MED (minimal effective dose)” value [5] is reported as greater than 3 mpk, the AD [2] is reported as “ND (^ <4%)” and the AG [2] is reported as “ND (^ <4%)”. The AN [2] was “ND (^ <4%)”, the AX [2] was “ND (^ <4%)” and the CE [2] was “ND (^ <4%)”. The HL [2] was “ND (^ <4%)”, the MS [2] was “ND (^ <4%)” and the PS [2] was “ND (^ <4%)”. The AP [3] was “ND (^ <4%)”, the SH [3] was “ND (^ <4%)” and the UK [3] was “+ (≥4%)”.
`CNC1CCc2scc(F)c2C1` (single isomer, unassigned) [Compound 137, 3-fluoro-N-methyl-4,5,6,7-tetrahydrobenzothiophen-5-amine hydrochloride] was tested, and the minimal effective dose [1] was 1 mg/kg, the AD [2] was “ND (^ <4%)” and the AG [2] was “ND (^ <4%)”. The AN [2] was “ND (^ <4%)”, the CE [2] was “ND (^ <4%)” and the HL [2] was “ND (^ <4%)”. The MS [2] was “ND (^ <4%)”, the PS [2] was “ND (^ <4%)” and the SH [2] was “ND (^ <4%)”. For the same molecule, the UK [2] was “ND (^ <4%)”, the AP [3] was “++++ (≥74%)” and the AX [3] was “ND (^ <4%)”.
In the case of `CNC1CCc2scc(F)c2C1` (single isomer, unassigned) [Compound 138, 3-fluoro-N-methyl-4,5,6,7-tetrahydrobenzothiophen-5-amine hydrochloride], the “MED (minimal effective dose)” value [4] is reported as 1 mpk, the AD [2] is reported as “ND (^ <4%)” and the AG [2] is reported as “ND (^ <4%)”. The AN [2] was “ND (^ <4%)”, the CE [2] was “ND (^ <4%)” and the HL [2] was “ND (^ <4%)”. For the same molecule, the MS [2] was “ND (^ <4%)”, the PS [2] was “ND (^ <4%)” and the SH [2] was “ND (^ <4%)”. For the same molecule, the UK [2] was “ND (^ <4%)”, the AP [3] was “+++ (≥49%)” and the AX [3] was “++ (≥24%)”.
`Cc1csc2c1CC(N)CC2` (single isomer, unassigned) [Compound 143, 3-methyl-4,5,6,7-tetrahydrobenzothiophen-5-amine hydrochloride] was tested, and the minimal effective dose [6] was 1 mg/kg, the AG (SmartCube class probability) was “ND (^ <4%)” and the AN (SmartCube class probability) was “ND (^ <4%)”. For the same molecule, the AP (SmartCube class probability) was “ND (^ <4%)”, the AX (SmartCube class probability) was “ND (^ <4%)” and the CE (SmartCube class probability) was “ND (^ <4%)”. For the same molecule, the MS (SmartCube class probability) was “ND (^ <4%)”, the AD [7] was “+ (≥4%)” and the HL [7] was “+ (≥4%)”. The PS [7] was “++ (≥24%)”, the SH [7] was “+ (≥4%)” and the UK [7] was “ND (^ <4%)”.
In the case of `Cc1csc2c1CC(N)CC2` (single isomer, unassigned) [Compound 144, 3-methyl-4,5,6,7-tetrahydrobenzothiophen-5-amine hydrochloride], the AG (SmartCube class probability) is reported as “ND (^ <4%)”, the AN (SmartCube class probability) is reported as “ND (^ <4%)” and the AP (SmartCube class probability) is reported as “ND (^ <4%)”. For the same molecule, the AX (SmartCube class probability) was “ND (^ <4%)”, the CE (SmartCube class probability) was “ND (^ <4%)” and the MS (SmartCube class probability) was “ND (^ <4%)”. The AD [7] was “ND (^ <4%)”, the HL [7] was “ND (^ <4%)” and the PS [7] was “ND (^ <4%)”. For the same molecule, the SH [7] was “ND (^ <4%)”, the UK [7] was “++++ (≥74%)” and the MED [8] was 1 mpk.
`CNC1CCc2cc(Cl)sc2C1` (single isomer, unassigned) [Compound 145, 2-chloro-N-methyl-4,5,6,7-tetrahydrobenzothiophen-6-amine hydrochloride] was tested, and the minimal effective dose [6] was 3 mg/kg, the AG (SmartCube class probability) was “ND (^ <4%)” and the AN (SmartCube class probability) was “ND (^ <4%)”. For the same molecule, the AP (SmartCube class probability) was “ND (^ <4%)”, the AX (SmartCube class probability) was “ND (^ <4%)” and the CE (SmartCube class probability) was “ND (^ <4%)”. For the same molecule, the HL (SmartCube class probability) was “ND (^ <4%)”, the MS (SmartCube class probability) was “ND (^ <4%)” and the PS (SmartCube class probability) was “ND (^ <4%)”. The SH (SmartCube class probability) was “ND (^ <4%)”, the AD [7] was “++++ (≥74%)” and the UK [7] was “ND (^ <4%)”.
With `CNC1CCc2cc(Cl)sc2C1` (single isomer, unassigned) [Compound 146, 2-chloro-N-methyl-4,5,6,7-tetrahydrobenzothiophen-6-amine hydrochloride] the AG (SmartCube class probability) was “ND (^ <4%)”, the AN (SmartCube class probability) was “ND (^ <4%)” and the AP (SmartCube class probability) was “ND (^ <4%)”. For the same molecule, the AX (SmartCube class probability) was “ND (^ <4%)”, the CE (SmartCube class probability) was “ND (^ <4%)” and the HL (SmartCube class probability) was “ND (^ <4%)”. The MS (SmartCube class probability) was “ND (^ <4%)”, the PS (SmartCube class probability) was “ND (^ <4%)” and the SH (SmartCube class probability) was “ND (^ <4%)”. The AD [7] was “ND (^ <4%)”, the UK [7] was “+++ (≥49%)” and the MED [8] was 3 mpk.
In the case of `CNC1CCc2c(sc(Cl)c2C)C1` (single isomer, unassigned) [Compound 147, 2-chloro-N, 3-dimethyl-4,5,6,7-tetrahydrobenzothiophen-6-amine hydrochloride], the minimal effective dose [6] is reported as 3 mg/kg, the AG (SmartCube class probability) is reported as “ND (^ <4%)” and the CE (SmartCube class probability) is reported as “ND (^ <4%)”. The MS (SmartCube class probability) was “ND (^ <4%)”, the PS (SmartCube class probability) was “ND (^ <4%)” and the SH (SmartCube class probability) was “ND (^ <4%)”. For the same molecule, the AD [7] was “ND (^ <4%)”, the AN [7] was “+ (≥4%)” and the AP [7] was “ND (^ <4%)”. The AX [7] was “ND (^ <4%)”, the HL [7] was “+ (≥4%)” and the UK [7] was “+++ (≥49%)”.
With `CNC1CCc2c(sc(Cl)c2C)C1` (single isomer, unassigned) [Compound 148, 2-chloro-N, 3-dimethyl-4,5,6,7-tetrahydrobenzothiophen-6-amine hydrochloride] the AG (SmartCube class probability) was “ND (^ <4%)”, the CE (SmartCube class probability) was “ND (^ <4%)” and the MS (SmartCube class probability) was “ND (^ <4%)”. The PS (SmartCube class probability) was “ND (^ <4%)”, the SH (SmartCube class probability) was “ND (^ <4%)” and the AD [7] was “+++ (≥49%)”. For the same molecule, the AN [7] was “ND (^ <4%)”, the AP [7] was “+ (≥4%)” and the AX [7] was “++ (≥24%)”. The HL [7] was “ND (^ <4%)”, the UK [7] was “ND (^ <4%)” and the MED [8] was 3 mpk.
`CNC1(C)CCc2c(csc2C)C1` (single isomer, unassigned) [Compound 149, N, 1,5-trimethyl-6,7-dihydro-4H-2-benzothiophen-5-amine hydrochloride] was tested, and the minimal effective dose [6] was 3 mg/kg, the AD (SmartCube class probability) was “ND (^ <4%)” and the AG (SmartCube class probability) was “ND (^ <4%)”. For the same molecule, the AN (SmartCube class probability) was “ND (^ <4%)”, the AP (SmartCube class probability) was “ND (^ <4%)” and the AX (SmartCube class probability) was “ND (^ <4%)”. The CE (SmartCube class probability) was “ND (^ <4%)”, the MS (SmartCube class probability) was “ND (^ <4%)” and the SH (SmartCube class probability) was “ND (^ <4%)”. The UK (SmartCube class probability) was “ND (^ <4%)”, the HL [7] was “+ (≥4%)” and the PS [7] was “++++ (≥74%)”.
For `CNC1(C)CCc2c(csc2C)C1` (single isomer, unassigned) [Compound 150, N, 1,5-trimethyl-6,7-dihydro-4H-2-benzothiophen-5-amine hydrochloride], the AD (SmartCube class probability) was “ND (^ <4%)”, the AG (SmartCube class probability) was “ND (^ <4%)” and the AN (SmartCube class probability) was “ND (^ <4%)”. For the same molecule, the AP (SmartCube class probability) was “ND (^ <4%)”, the AX (SmartCube class probability) was “ND (^ <4%)” and the CE (SmartCube class probability) was “ND (^ <4%)”. The MS (SmartCube class probability) was “ND (^ <4%)”, the SH (SmartCube class probability) was “ND (^ <4%)” and the UK (SmartCube class probability) was “ND (^ <4%)”. The HL [7] was “+++ (≥49%)”, the PS [7] was “++ (≥24%)” and the MED [8] was 3 mpk.
